Results on eleven compounds are retold here after US11285156B2, “Substituted piperazines as KRAS G12C inhibitors” (Amgen Inc., priority 2018, dated 2022).

Test [1] addresses GDP-bound KRAS protein (aa 1-169), containing both G12C and C118A amino acid substitutions (Homo sapiens (Human), UniProt P01116, C118A/G12C). As to the kind of experiment: Coupled nucleotide exchange assay (SOS-mediated nucleotide exchange, AlphaScreen). Type of test: biochemical. The conditions noted are these: 5 min compound pre-incubation; for IC50: read-out: Coupled exchange IC50 (5 min; μM). (In general: In Alpha technology, singlet oxygen from a donor bead excites a nearby acceptor bead.)

In test [2] the test system is Phosphorylation of ERK1/2 in A549 cells. As to the kind of experiment: Phospho-ERK1/2 MSD assay in A549 cells. Type of test: cell-based. The conditions noted are these: read-out: p-ERK IC50 (2 h, A549; μM). The essentials:
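Phospho-ERK1/2 was quantified by MSD immunoassay in RIPA lysates of MIA PaCa-2 or A549 cells. Before lysis, cells received 10 ng/mL EGF for 10 min after 2 or 4 h exposure at 37° C. to a compound concentration series.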

The subject of test [3] is Phosphorylation of ERK1/2 in MIA PaCa-2 cells. In words: Phospho-ERK1/2 MSD assay in MIA PaCa-2 cells. In kind it is cell-based. To be noted: read-out: p-ERK IC50 (2 h, MiaPaCa-2; μM). The gist of the method: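 Phospho-ERK1/2 measured by MSD electrochemiluminescence kit in RIPA lysates of MIA PaCa-2 cells. Cells were treated with compound titrations for 2 or 4 h at 37 °C, 5% CO2, followed by a 10 min pulse of 10 ng/mL EGF.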

Where [4] appears, read: Homo sapiens, A549, 2 h, 2 h compound treatment, A549 cells, EGF stimulated.
The mark [5] stands for this setting: Homo sapiens, MIA PaCa-2, 2 h, 2 h compound treatment, MIA PaCa-2 cells, EGF stimulated.

The term IC50 denotes the concentration needed to halve the response being measured.

Read-outs that look alike come from different tables or passages of the source.

Sequence of GDP-bound KRAS protein (aa 1-169), containing both G12C and C118A amino acid substitutions (P01116 other isoform, or with tags, fused parts or gaps G12C/C118A): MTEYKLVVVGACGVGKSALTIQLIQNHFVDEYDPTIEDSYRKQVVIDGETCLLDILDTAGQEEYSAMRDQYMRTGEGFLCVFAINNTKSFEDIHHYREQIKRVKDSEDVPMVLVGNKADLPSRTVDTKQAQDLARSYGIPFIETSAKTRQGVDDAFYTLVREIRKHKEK

Take `C=CC(=O)N1C[C@H](C)N(c2nc(=O)n(-c3c(N)ncnc3C(C)C)c3nc(-c4c(O)cccc4F)c(Cl)cc23)C[C@H]1C` [Example 190, 4-((2S,5R)-4-Acryloyl-2,5-dimethylpiperazin-1-yl)-1-(4-amino-6-isopropylpyrimidin-5-yl)-6-chloro-7-(2-fluoro-6-hydroxyphenyl)pyrido[2,3-d]pyrimidin-2(1H)-one]: the “Coupled exchange IC50 (5 min; μM)” value in test [1] came to 0.126 µM. Further, the results for the half-inhibitory concentration (IC50) in test [2] (setting [4]) and in test [3] (setting [5]) were greater than 7.5 µM and 1.71 µM, respectively.

For `C=CC(=O)N1C[C@H](C)N(c2nc(=O)n(-c3c(N)ncnc3C(C)C)c3nc(-c4c(N)cccc4F)c(Cl)cc23)C[C@H]1C` [Example 192, 4-((2S,5R)-4-Acryloyl-2,5-dimethylpiperazin-1-yl)-7-(2-amino-6-fluorophenyl)-1-(4-amino-6-isopropylpyrimidin-5-yl)-6-chloropyrido[2,3-d]pyrimidin-2(1H)-one], the “Coupled exchange IC50 (5 min; μM)” value in test [1] turned out to be 0.029 µM. In addition, the IC50 in test [2] (setting [4]) was greater than 7.5 µM; in test [3] (setting [5]) it was 0.161 µM.

On to `C=CC(=O)N1C[C@H](C)N(c2nc(=O)n(-c3c(C)nc(C)nc3C(C)C)c3nc(-c4ccccc4F)c(Cl)cc23)C[C@H]1C` [Example 193, 4-((2S,5R)-4-Acryloyl-2,5-dimethylpiperazin-1-yl)-6-chloro-7-(2-fluorophenyl)-1-(4-isopropyl-2,6-dimethylpyrimidin-5-yl)pyrido[2,3-d]pyrimidin-2(1H)-one], for which the results for the half-maximal inhibitory concentration (IC50) in test [1], in test [2] (setting [4]) and in test [3] (setting [5]) were 0.056 µM, greater than 7.5 µM and 0.055 µM, respectively.

Turning to `C=CC(=O)N1C[C@H](C)N(c2nc(=O)n(-c3c(C)ncnc3C(C)C)c3nc(-c4ccccc4F)c(Cl)cc23)C[C@H]1C` [Example 194, 4-((2S,5R)-4-Acryloyl-2,5-dimethylpiperazin-1-yl)-6-chloro-7-(2-fluorophenyl)-1-(4-isopropyl-6-methylpyrimidin-5-yl)pyrido[2,3-d]pyrimidin-2(1H)-one], the results for the IC50 in test [1], in test [2] (setting [4]) and in test [3] (setting [5]) were 0.186 µM, greater than 7.5 µM and 0.048 µM, respectively.

In the case of `C=CC(=O)N1C[C@H](C)N(c2nc(=O)n(-c3c(C(C)C)cnnc3C(C)C)c3nc(-c4ccccc4F)c(Cl)cc23)C[C@H]1C` [Example 205, 4-((2S,5R)-4-Acryloyl-2,5-dimethylpiperazin-1-yl)-6-chloro-1-(3,5-diisopropylpyridazin-4-yl)-7-(2-fluorophenyl)pyrido[2,3-d]pyrimidin-2(1H)-one], the 50% inhibitory concentration (IC50) in test [1] was 0.08 µM; in test [2] (setting [4]) it was greater than 7.5 µM; in test [3] (setting [5]), 0.095 µM.

In the case of `C=CC(=O)N1[C@H](C)CN(c2nc(=O)n(-c3c(C(C)C)cnnc3C(C)C)c3nc(-c4ccccc4F)c(Cl)cc23)C[C@@H]1C` [Example 206-2, 4-(cis-4-Acryloyl-3,5-dimethylpiperazin-1-yl)-6-chloro-1-(3,5-diisopropylpyridazin-4-yl)-7-(2-fluorophenyl)pyrido[2,3-d]pyrimidin-2(1H)-one], the “Coupled exchange IC50 (5 min; μM)” value in test [1] stood at 0.098 µM. Also, the half-maximal inhibitory concentration (IC50) in test [2] (2 h compound treatment, A549 cells, EGF stimulated) is greater than 7.5 µM; in test [3] (2 h compound treatment, MIA PaCa-2 cells, EGF stimulated), 0.139 µM.

In the case of `C=CC(=O)N1C[C@H](C)N(c2nc(=O)n(-c3ccc(S(C)(=O)=O)cc3C(C)C)c3nc(-c4ccccc4F)c(Cl)cc23)C[C@H]1C` [Example 208, 4-((2S,5R)-4-Acryloyl-2,5-dimethylpiperazin-1-yl)-6-chloro-7-(2-fluorophenyl)-1-(2-isopropyl-4-(methylsulfonyl)phenyl)pyrido[2,3-d]pyrimidin-2(1H)-one], the “Coupled exchange IC50 (5 min; μM)” value in test [1] was 0.231 µM. In addition, the results for the IC50 in test [2] (setting [4]) and in test [3] (setting [5]) were greater than 7.5 µM and 0.14 µM, respectively.

Regarding `C=CC(=O)N1C[C@H](C)N(c2nc(=O)n(-c3c(C)ccnc3C(C)C)c3nc(-c4ccccc4S(C)(=O)=O)c(Cl)cc23)C[C@H]1C` [Example 210, 4-((2S,5R)-4-Acryloyl-2,5-dimethylpiperazin-1-yl)-6-chloro-1-(2-isopropyl-4-methylpyridin-3-yl)-7-(2-(methylsulfonyl)phenyl)pyrido[2,3-d]pyrimidin-2(1H)-one], the “Coupled exchange IC50 (5 min; μM)” value in test [1] is 0.049 µM. Further, the IC50 in test [2] (setting [4]) was greater than 7.5 µM; in test [3] (setting [5]), 0.039 µM.

Consider `C=CC(=O)N1C[C@H](C)N(c2nc(=O)n(-c3c(C)cc([S+](C)[O-])cc3C(C)C)c3nc(-c4ccccc4C)c(Cl)cc23)C[C@H]1C` (stereo partly drawn) [Example 213, 4-((2S,5R)-4-Acryloyl-2,5-dimethylpiperazin-1-yl)-6-chloro-1-(2-isopropyl-6-methyl-4-(methylsulfinyl)phenyl)-7-(o-tolyl)pyrido[2,3-d]pyrimidin-2(1H)-one], for which the IC50 in test [1] is 0.182 µM; in test [2] (setting [4]), greater than 7.5 µM; in test [3] (setting [5]), 0.104 µM.

Turning to `C=CC(=O)N1C[C@H](C)N(C2=NC(=O)CN(c3c(C)ccnc3C(C)C)c3nc(-c4ccccc4F)c(Cl)cc32)C[C@H]1C` [Example 218, 5-((2S,5R)-4-Acryloyl-2,5-dimethylpiperazin-1-yl)-7-chloro-8-(2-fluorophenyl)-1-(2-isopropyl-4-methylpyridin-3-yl)-1,2-dihydro-3H-pyrido[2,3-e][1,4]diazepin-3-one], the IC50 is 0.094 µM in test [1]; greater than 7.5 µM in test [2] (Homo sapiens, A549, 2 h); 0.035 µM in test [3] (Homo sapiens, MIA PaCa-2, 2 h).

Consider `C=CC(=O)N1C[C@H](C)N(c2nc(=O)n(-c3c(C(C)C)nc(N)nc3C(C)C)c3nc(-c4ccccc4F)c(Cl)cc23)C[C@H]1C` [Example 229, 4-((2S,5R)-4-Acryloyl-2,5-dimethylpiperazin-1-yl)-1-(2-amino-4,6-diisopropylpyrimidin-5-yl)-6-chloro-7-(2-fluorophenyl)pyrido[2,3-d]pyrimidin-2(1H)-one], for which the IC50 is 0.071 µM in test [1], greater than 7.5 µM in test [2] (setting [4]) and 0.032 µM in test [3] (setting [5]).
